According to patent publication US7897628B2, “Aryl carbonyl derivatives as therapeutic agents” (Novo Nordisk A/S, priority 2002, dated 2011):

These compounds were tested on glucokinase (assay: Liver specificity: activity in isolated hepatocytes (Glucokinase Activity Assay (II)) compared to Ins-1 cells (Glucokinase Activity Assay (III))). Details: Glucokinase Activity Assay (II) (isolated hepatocytes) compared to Glucokinase Activity Assay (III) (Ins-1 cells).
Type: cell-based
Source text: For the purpose of describing this invention, the potential liver selectivity of a glucokinase activator may be assayed by comparison of the results obtained in response to the glucokinase activator in isolated hepatocytes and the results obtained in response to the glucokinase activator in Ins-1 cells. […] The activity of the glucokinase activator in Glucokinase Activity Assay (II) (hepatocytes) may for instance be at least 1.1 fold higher, such as at least 1.2 fold higher, for instance at least 1.3 fold higher, such as at least 1.4 fold higher, for instance 1.5 fold higher, such as at least 1.6 fold higher, for instance at least 1.7 fold higher, such as at least 1.8 fold higher, for instance at least 1.9 fold higher, such as at least 2.0 fold higher, for instance at least a 3.0 fold higher, such as at least a 4.0 fold higher, for instance at least 5.0 fold higher, such as at least 10 fold higher than the activity of the glucokinase activator in Glucokinase Activity Assay (III) (Ins-1 cells). Alternatively, the glucokinase activator may show no activity in the Ins-1 cells measured as described in the Glucokinase Activity Assay (III), while showing a significant activity in hepatocytes measured as described in the Glucokinase Activity Assay (II).
For `COc1cccc(F)c1Oc1ccc(F)cc1NC(=O)Nc1nc(CC(=O)NCCN2CCOCC2)cs1` [2-(2-{3-[5-fluoro-2-(2-fluoro-6-methoxyphenoxy)phenyl]ureido}thiazol-4-yl)-N-(2-morpholin-4-ylethyl)acetamide], the “liver specific glucokinase activator (significantly higher activity in isolated hepatocytes than in Ins-1 cells)” value was “liver specific glucokinase activators”.
In the case of `CCOC(=O)c1csc(NC(=O)Nc2cc(F)ccc2Oc2cccc(OC)c2OC)n1` [2-{3-[2-(2,3-dimethoxyphenoxy)-5-fluorophenyl]ureido}thiazole-4-carboxylic acid ethyl ester], the “liver specific glucokinase activator (significantly higher activity in isolated hepatocytes than in Ins-1 cells)” value is reported as “liver specific glucokinase activators”.
`COc1cccc(Oc2ccc(F)cc2NC(=O)Nc2nc(C(=O)O)cs2)c1OC` [2-{3-[2-(2,3-dimethoxyphenoxy)-5-fluorophenyl]ureido}thiazole-4-carboxylic acid] was tested, and the “liver specific glucokinase activator (significantly higher activity in isolated hepatocytes than in Ins-1 cells)” value was “liver specific glucokinase activators”.
For `CCOC(=O)Cc1csc(NC(=O)Nc2cc(F)ccc2Oc2cccc(OC)c2OC)n1` [(2-{3-[2-(2,3-dimethoxyphenoxy)-5-fluorophenyl]ureido}thiazol-4-yl)acetic acid ethyl ester], the “liver specific glucokinase activator (significantly higher activity in isolated hepatocytes than in Ins-1 cells)” value was “liver specific glucokinase activators”.
`COc1cccc(F)c1Oc1ccc(F)cc1NC(=O)Nc1nc(CC(=O)O)cs1` [(2-{3-[5-fluoro-2-(2-fluoro-6-methoxyphenoxy)phenyl]ureido}thiazol-4-yl)acetic acid] was tested, and the “liver specific glucokinase activator (significantly higher activity in isolated hepatocytes than in Ins-1 cells)” value was “liver specific glucokinase activators”.
For `COc1cccc(F)c1Oc1ccc(F)cc1NC(=O)Nc1nc(CC(=O)NCC(=O)O)cs1` [[2-(2-{3-[5-fluoro-2-(2-fluoro-6-methoxyphenoxy)phenyl]ureido}thiazol-4-yl)acetylamino]acetic acid], the “liver specific glucokinase activator (significantly higher activity in isolated hepatocytes than in Ins-1 cells)” value was “liver specific glucokinase activators”.
With `Cc1ccc(NC(=O)Nc2nc(CC(=O)O)cs2)c(C(=O)C2CCCC2)c1` [{2-[3-(2-cyclopentanecarbonyl-4-methyl-phenyl)-ureido]-thiazol-4-yl}-acetic acid] the “liver specific glucokinase activator (significantly higher activity in isolated hepatocytes than in Ins-1 cells)” value was “liver specific glucokinase activators”.
With `Cc1ccc(NC(=O)Nc2nc(CC(=O)O)cs2)c(OCC(C)C)c1` [{2-[3-(4-methyl-2-[2-methylpropoxy]phenyl)-ureido]-thiazol-4-yl}-acetic acid] the “liver specific glucokinase activator (significantly higher activity in isolated hepatocytes than in Ins-1 cells)” value was “liver specific glucokinase activators”.
